Test system: sites of inflammation
Experiment: In vivo imaging of collagen-induced arthritis (CIA) mice, qualitative analysis of targeting
Design: species or system Balb/c mice
Details: inflamed paw
Procedure: Inflammation was modeled by inducing polyarticular collagen-induced arthritis (CIA) in 4-6 week old female Balb/c mice (Charles River). Antibody mediated CIA was induced by intravenous (IV; tail vein) injection of 2 mg Arthrogen-CIA Monoclonal Antibody Blend (Chemicon). Three days after antibody treatment, each mouse received 50 μg Lipopolysaccharide (LPS; Chemicon) intraperitoneally (IP). Seven days after the initial injection, the mice had recovered from the LPS toxicity and symptoms of arthritis were observed. Mice were monitored daily and scored for paw and joint swelling based on the following scale: • 0: Normal • 1: Mild but definite swelling of ankle or wrist or swelling limited to individual digits • 2: Moderate redness and swelling of ankle and wrist • 3: Severe redness and swelling of the entire paw including digits (none of the study mice reached this stage)
Mice were injected with the present contrast agent when they reached level 2, between five and ten days after the LPS injection.
Contrast agents were introduced systemically by IV injection. A 29-guage needle was used to inject 100 μl of 1% solids in water (without buffer salts or saline) containing 2% Pluronic F-127 via the lateral tail vein. The tail was stroked lengthwise three times with an alcohol saturated pad to dilate the blood vessels prior to injection. […]

BSA conjugate: BSA conjugate used as comparison contrast agent; labeled the whole paw
image resolution of labeling: labeled the whole paw

Source: US20120276015A1, “Optical in vivo Imaging Contrast Agents and Methods of Use” (priority 2005, published 2012)
